The source of these data is PubChem BioAssay AID179 (DTP/NCI, 2004).

pEC50, pIC50: −log10 of the molar value. Activity calls are given as the source filed them.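 The calls were made as follows: active = compounds giving half or more protection of infected cells from virus-caused growth loss, again on retest; inactive = the rest.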 A value given as a limit tells only on which side of the number the result lay.

The test system of the assay is CEM cells HIV-1 protection, formazan growth assay. Description: NCI AIDS Antiviral Assay. To be noted: for pIC50: measured here: growth of uninfected CEM cells. The essentials:
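Category rules: moderately active means at least 50% protection on retest, and confirmed active means 100% protection reproducibly. The underlying data came from a formazan growth assay in HIV-1-infected CEM cells.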

With `COC(=O)C1N=CSCC1(C)O` (centres undefined), the pEC50 – broadly, the EC50 on a negative log10 scale, so that one unit is a factor of ten – was < 2.88 and the pIC50 – broadly, the IC50 on a negative log10 scale, so that one unit is a factor of ten – was 3.73.

In the case of `CCCCCCCCCCCCCCCCCCNC(=S)/N=C/c1c(O)c2ccccc2[nH]c1=O`, the pEC50 is < 3.70 and the pIC50 is 4.35.

As for `CN=c1ss/c(=N\C(=S)N(C)C)n1-c1ccccc1`, the outcome was inactive.

Consider `COC1(OC)CC2C(=O)N(Cc3ccccc3)C1C=C2S(=O)(=O)c1ccccc1` (centres undefined), for which the result was inactive.

For the compound `COc1cc(/C=C2\CCc3ccccc3C2=O)ccc1O`, the pEC50 is < 3.70 and the pIC50 is 5.03.

On to `CC(C)(C)C1=CC(=O)C(Cl)(C(C)(C)C)C(Cl)C1=O` (centres undefined), for which the pEC50 was < 4.70 and the pIC50 was 5.94.

As to `CC12CC(OC1=O)C(=O)c1ccccc12` (centres undefined), the pEC50 is < 3.33 and the pIC50 was 3.68.

As for `COCO[C@@H]1C[C@H]2C(=O)N(COC)c3ccccc3C(=O)N2C1`, the pEC50 is < 3.70 and the pIC50 is < 3.70.

For the compound `Cc1cn(C2CC(C)N(CCO)O2)c(=O)[nH]c1=O` (centres undefined), the pEC50 is < 3.70 and the pIC50 is < 3.70.

`[O-][n+]1c(-c2ccccc2)c2nc3ccccc3nc2c2ccccc21`: the pEC50 is < 4.40 and the pIC50 is < 4.40.

As to `C=CCN=C1N=C(C)C(C(=O)OCC)S1` (centres undefined), the pEC50 was < 4.52 and the pIC50 is 4.75.

Take `COc1ccccc1NC(=O)/C(=C\n1c(=S)[nH]c2ccc([N+](=O)[O-])cc21)C(C)=O`: the pEC50 was < 3.70 and the pIC50 is 3.95.

On to `CC(C)(C)OC(=O)NC(Cc1cnc[nH]1)C(=O)N1CCCC1C(N)=O` (centres undefined), for which the pEC50 is < 3.70 and the pIC50 is < 3.70.

On to `O=C1C(c2ccccc2)=C(c2ccccc2)C(c2ccc(CCCCCCc3ccc(C4=C(c5ccccc5)C(=O)C(c5ccccc5)=C4c4ccccc4)cc3)cc2)=C1c1ccccc1`, for which the pEC50 was < 5.91 and the pIC50 was < 5.91.

For `CCOc1ccc(NC(=S)/N=C/c2c(O)cc(C)oc2=O)cc1`, the outcome was inactive.

Consider `COC(=O)c1c2c(cc3c1CC1(Cc4ccccc4C1=O)C3)CCC2` (centres undefined), for which the pEC50 is < 3.70 and the pIC50 was 4.87.

Consider `COc1cc(OC)nc(-n2c(N)c(C#N)c3ccc([N+](=O)[O-])cc3c2=O)n1`, for which the pEC50 is < 3.70 and the pIC50 was < 3.70.

On to `CCC(C)N1CN(c2ccccc2)C2(CCN(CCCC(=O)c3ccc(F)cc3)CC2)C1=O` (centres undefined), for which the pEC50 is < 3.70 and the pIC50 is 5.45.

Regarding `O=C1/C(=C/c2ccc(O)cc2)Oc2cc(O)ccc21`, the pEC50 was < 3.69 and the pIC50 was 4.18.

As for `Nc1nncc2[nH]cnc12`, the pEC50 is < 3.70 and the pIC50 was 5.00.

On to `CN1CC(=O)N(C)c2ncn(Cc3ccccc3)c2C1=O`, for which the outcome was inactive.

Consider `CCC(=O)N1C(=O)C(C)C23c4cc(OC)c(OC)cc4C(=O)N2CCCN13` (centres undefined), for which the pEC50 is < 3.62 and the pIC50 is < 3.62.

Take `Cn1c(-c2cccs2)cc(-c2cccs2)c1-c1cccs1`: the pEC50 is < 3.70 and the pIC50 is 4.47.

On to `CCOC(=O)/C(C#N)=C/c1ccc(SCc2ccco2)c([N+](=O)[O-])c1`, for which the pEC50 was < 3.70 and the negative-log IC50 (pIC50) is < 3.70.

Turning to `Cc1cc(NS(=O)(=O)c2ccc(NC(=O)c3cccc4c(Nc5ccc(S(N)(=O)=O)cc5)c5ccccc5nc34)cc2)no1`, the pEC50 is < 3.83 and the pIC50 is < 3.83.

With `COc1ccc(/C(C)=N/NC(=O)CC(=O)N(C(=O)c2ccccc2)c2ccc(C)cc2)cc1`, the pEC50 was < 4.79 and the pIC50 was < 4.79.

In the case of `c1cc(C[S+]2CCCC2)sc1C[S+]1CCCC1`, the result was inactive.

`CCCCCCCCCCCC(=O)OCC1OC(n2cc(F)c(=O)[nH]c2=O)C(N)C(OC(=O)CCCCCCCCCCC)C1O` (centres undefined): the pEC50 was < 5.52 and the pIC50 was < 5.52.

`CC(=O)OC1CC2CCC3C(CCC4(C)C3CC([N+]3(C)CCCCC3)C4OC(C)=O)C2(C)CC1[N+]1(C)CCCCC1` (centres undefined): the pEC50 is < 3.70 and the pIC50 is < 3.70.

For `CN(C)CCCN1CCc2c([nH]c3ccccc23)C1c1cccnc1` (centres undefined), the pEC50 is < 3.97 and the pIC50 is < 3.97.

With `O=C1NC2(CCCC2)C2CCCCC12O` (centres undefined), the outcome was inactive.

As to `COc1ccc(NC(=O)C(=O)Cc2nc3ccc([N+](=O)[O-])cc3[nH]c2=O)c(OC)c1`, the pEC50 is < 4.76 and the pIC50 is < 4.76.

With `Cc1ccccc1NC(=O)CSc1nnc(Cc2ccccc2)o1`, the pEC50 was < 3.58 and the pIC50 is 3.63.

On to `Cn1c(COc2ccc(/C=N/Nc3ccnc(N/N=C/c4ccc(OCc5c[n+]6ccccc6n5C)cc4)n3)cc2)c[n+]2ccccc12`, for which the pEC50 was 5.52 and the pIC50 was 5.49.

Turning to `COc1ccc(C(=O)C(c2ccc(OC)cc2)C2(O)C(=O)Nc3ccc([N+](=O)[O-])cc32)cc1` (centres undefined), the pEC50 is < 4.10 and the pIC50 was < 4.10.

As to `CCCCCCCCCCCCCCCCCCCCOC1OC(COC(C)=O)C(OC(C)=O)C(OC(C)=O)C1OC(C)=O` (centres undefined), the pEC50 was < 4.45 and the pIC50 is < 4.45.

In the case of `Cc1[nH]c2ccccc2c1C1Cc2ccccc2N1C(=O)/C(C#N)=C/c1ccccc1` (centres undefined), the pEC50 was < 4.89 and the pIC50 was 5.64.

For `CCOC(=O)C(NCc1ccc2c(c1)OCO2)(NC(=O)c1ccccc1)C(F)(F)F` (centres undefined), the pEC50 was < 3.70 and the pIC50 is 4.52.

As for `O=C(NC(=O)c1ccccc1O)c1ccccc1`, the pEC50 was < 3.55 and the negative-log IC50 (pIC50) is < 3.55.

On to `O=Cc1ccc(-c2ccc(-c3ccc(CO)s3)o2)s1`, for which the result was inactive.

On to `O=C1OCC2(CO)SC(c3ccccc3)NC12` (centres undefined), for which the pEC50 is < 3.28 and the pIC50 was < 3.28.

As to `COc1cc(Br)c(CC2NCCc3cc(OC)c(OC)cc32)cc1OC` (centres undefined), the pEC50 is < 3.65 and the pIC50 was < 3.65.

For the compound `CCOC(=O)/C(=C\c1ccc(OC)cc1)P(=O)(OCC)OCC`, the pEC50 is < 3.42 and the pIC50 was 4.11.

Regarding `COc1ccccc1C1SCC(=O)N1c1ccc(-c2ccc(-n3c(-c4ccccc4)nc4ccccc4c3=O)cc2)cc1` (centres undefined), the pEC50 was < 3.70 and the pIC50 was < 3.70.

For `Cc1nc(-n2nc(-c3ccccc3)cc2-c2ccccc2)sc1C(=O)/C=C/c1cccc([N+](=O)[O-])c1`, the pEC50 is < 4.84 and the pIC50 was 4.96.

Take `O=[N+]([O-])c1ccc(C2CC(c3ccccc3Cl)=Nc3ccccc3S2=O)cc1` (centres undefined): the pEC50 is < 5.31 and the pIC50 is < 5.31.

Regarding `Cc1ccc(C2=NN(C)COC2C(F)(F)F)cc1` (centres undefined), the pEC50 was < 4.55 and the pIC50 is < 4.55.

Take `COc1ccc(C(=O)Cn2c(C(C)=O)nc3ccccc32)cc1`: the pEC50 was < 3.70 and the negative-log IC50 (pIC50) was 5.61.

With `O=S1(=O)OCCOS(=O)(=O)C1Br`, the pEC50 was < 3.05 and the negative logarithm of the IC50 (pIC50) is 3.48.

Consider `COc1ccc(C2SC(=S)N(c3ccc(Cl)cc3)N2c2ccc(Cl)cc2)cc1` (centres undefined), for which the pEC50 is < 3.70 and the pIC50 is 4.62.

In the case of `CN1c2ccccc2N(C(=O)c2ccccc2)C(CC(=O)O)c2cccn21` (centres undefined), the pEC50 is < 3.16 and the pIC50 is 3.54.

Regarding `O=C(CCc1ccc(O)c(O)c1)NCCc1ccc(O)c(O)c1`, the pEC50 was < 3.70 and the pIC50 was 5.02.

On to `CC(=O)OCC1OC(n2c(-c3ccc(Cl)cc3)cc(-c3ccccc3)c(C#N)c2=S)C(OC(C)=O)C(OC(C)=O)C1OC(C)=O` (centres undefined), for which the pEC50 is < 3.70 and the pIC50 was 3.84.

For `O=C(NCCc1c[nH]c2ccccc12)C(F)(F)F`, the pEC50 was < 3.70 and the pIC50 was < 3.70.

Consider `[O-]/[N+](=N/c1ncc(-c2ccccc2)cn1)c1ncc(-c2ccccc2)cn1`, for which the pEC50 was < 3.70 and the pIC50 was 4.50.

On to `CCc1c(-c2coc(CC/C(C)=C/c3ccccc3)n2)oc(OC)c(C)c1=O`, for which the pEC50 is < 5.02 and the pIC50 was 6.60.

For `CN(C)C=Nc1nc(=O)n(C2CCC(CO)O2)cc1F` (centres undefined), the negative logarithm of the EC50 (pEC50) is 7.17 and the pIC50 is 4.02.

Regarding `CCOc1ccnc2c(OC)c(C)c3nc4ccccc4nc3c12`, the pEC50 is < 4.00 and the pIC50 is < 4.00.

For the compound `COc1ccc(N2C(=O)C(=O)N(c3ccc(N=Nc4ccccc4)cc3)C2=S)cc1`, the pEC50 is < 3.70 and the pIC50 was 4.93.

In the case of `O=C1NC(O)n2c(=O)[nH]c(=O)n21` (centres undefined), the result was inactive.

Consider `COC(=O)C1(Cc2ccc3c(c2)CCC3)Cc2cc3c(cc2C1)CCC3`, for which the pEC50 was < 3.70 and the pIC50 is < 3.70.

Consider `CC(C)CCCC(C)[C@H]1CC[C@H]2[C@@H]3CC[C@H]4C[C@@H](CCC=C(c5cc(Cl)c(OCc6ccccc6B6OC(C)(C)C(C)(C)O6)c(C(=O)OCc6ccccc6B6OC(C)(C)C(C)(C)O6)c5)c5cc(Cl)c(OCc6ccccc6B6OC(C)(C)C(C)(C)O6)c(C(=O)OCc6ccccc6B6OC(C)(C)C(C)(C)O6)c5)CC[C@]4(C)[C@H]3CC[C@]12C` (some centres undefined), for which the pEC50 was < 3.90 and the pIC50 is < 3.90.

`O=C(/C=C/c1c(O)ccc2ccccc12)c1ccccc1`: the pEC50 is < 3.74 and the pIC50 is < 4.00.

For the compound `NCC(CS)C(=O)NC(CS)C(=O)NC(CS)C(=O)NCCNc1ccc(NCCNC(=O)C(CS)NC(=O)C(CS)NC(=O)C(CN)CS)c2c1C(=O)c1c(O)ccc(O)c1C2=O` (centres undefined), the pEC50 is < 5.70 and the pIC50 was 7.90.

In the case of `CN(C)c1nc2sc3c(c2c(=O)o1)CCCC3`, the pEC50 is < 3.70 and the pIC50 was 4.29.

Turning to `O=C1NNC(=O)c2ccccc2SSc2ccccc2C(=O)NNC(=O)c2ccccc2SSc2ccccc21`, the pEC50 was 5.30 and the pIC50 was 4.60.

For the compound `CCOC(=O)c1cc(I)c(-c2cc(C)no2)n1C`, the pEC50 is < 3.70 and the pIC50 was 4.43.

For `Cc1cccc(C2OC(=O)c3c2ccc2ccccc32)c1` (centres undefined), the result was inactive.

For the compound `Cc1ccc(C2=C(c3ccccc3)C(=O)C(c3ccccc3)=C2c2ccc(C)cc2)cc1`, the pEC50 is < 4.06 and the negative-log IC50 (pIC50) was < 4.06.
